Data set [1] in a line: Toxicokinetics of oral AGN 194310 in rats (drug in blood by GC/MS). The class given is in vivo, rat. The settings on record: for Tmax / Cmax / AUC(0-t): both sexes, Sprague-Dawley, rat, whole blood; for Tmax: Day 22; for Cmax / AUC(0-t): po; for Cmax: N = 8; for AUC(0-t): N = 8, read-out: AUC24 hr. As to the method:
The concentration of drug in the blood was determined from blood drawn from the retro-orbital sinus of the right eye on Day 7 of the study as follows: for rats in groups 7 through 9 (4/sex/group/timepoint, with each animal being bled no more than 3 times), blood (approximately 1 ml) was drawn prior to being given the drug, and at approximately 2, 6, 8, 12 and 24 hours post-dosing. The vehicle-treated rats (group 6) were bled at approximately 8 and 24 hours post-dosing. The rats in groups 6 through 9 were similarly bled on Day 22 of the study, then euthanized. All blood was drawn into tubes containing EDTA to prevent coagulation, and placed on ice prior to analysis. The blood was assayed for the presence of AGN 194310 by gas chromatography/mass spectrometry.
AGN 194310 was systemically absorbed following oral administration to rats and approached the peak concentration in plasma (Cmax) at 2 or 6 hours post dosing (Tmax).

In another data set the test system is male cynomologus monkeys. Put plainly: Preliminary test of AGN 194310 in male cynomologus monkeys. The class given is in vivo, cynomologus monkey. The settings on record: 5 male cynomologus monkeys, daily dosage of 1.25 mg/kg. From the text: Those of skill in the art will also recognize that both rats and monkeys are commonly used and accepted animal models for drug efficacy in humans.

A further data set can be described thus: Stability to light. The class given is physicochemical.

Where two headings read alike, the source gives them in different places.

One may read the Tmax as the time at which the peak concentration occurs. One may read the Cmax as the peak of the concentration-time curve. Take `CCc1ccc(C2=CC(C)(C)Sc3ccc(C#Cc4ccc(C(=O)O)cc4)cc32)cc1` [AGN 194310, 4-[[4-(4-ethylphenyl)-2,2-dimethyl-(2H)-thiochromen-6-yl]-ethynyl]-benzoic acid]: the “systemic exposure to AGN 194310” value in data set [1] (across the concentrations of AGN 194310) is “dose dependent increase”. In addition, the Tmax in data set [1] (0.005 mg/kg/day) came out at 2 h; in data set [1] (0.015 mg/kg/day) it was 2 h; in data set [1] (0.15 mg/kg/day), 6 h. For the same compound, the Cmax is 1.83 ± 0.55 ng/mL in data set [1] (0.005 mg/kg/day, 0.001% AGN 194310 (0.005 mg/kg/day), Day 7, mean ± SD); 1.97 ± 0.75 ng/mL in data set [1] (0.005 mg/kg/day, 0.001% AGN 194310 (0.005 mg/kg/day), Day 22, mean ± SD); 4.73 ± 1.2 ng/mL in data set [1] (0.015 mg/kg/day, 0.003% AGN 194310 (0.015 mg/kg/day), Day 7, mean ± SD); 5.32 ± 1.56 ng/mL in data set [1] (0.015 mg/kg/day, 0.003% AGN 194310 (0.015 mg/kg/day), Day 22, mean ± SD); 43.1 ± 7.2 ng/mL in data set [1] (0.15 mg/kg/day, 0.01% AGN 194310 (0.15 mg/kg/day), Day 7, mean ± SD); 42.4 ± 9.3 ng/mL in data set [1] (0.15 mg/kg/day, 0.01% AGN 194310 (0.15 mg/kg/day), Day 22, mean ± SD). The AUC(0-t) in data set [1] (0.005 mg/kg/day, Day 7, mean ± SEM) turned out to be 19.6 ± 1.1 ng·h/mL; in data set [1] (0.005 mg/kg/day, Day 22, mean ± SEM), 20.8 ± 1.1 ng·h/mL; in data set [1] (0.015 mg/kg/day, Day 7, mean ± SEM), 57.6 ± 2.6 ng·h/mL; in data set [1] (0.015 mg/kg/day, Day 22, mean ± SEM), 63.6 ± 2.7 ng·h/mL; in data set [1] (0.15 mg/kg/day, Day 7, mean ± SEM), 668 ± 24 ng·h/mL; in data set [1] (0.15 mg/kg/day, Day 22, mean ± SEM) it was 675 ± 25 ng·h/mL. Moreover, the “inhibition or arrest of spermatogenesis” value with male cynomologus monkeys was “did not result in inhibition or arrest of spermatogenesis”. Also, in the data set “Stability to light”, the “stability to normal light” value is recorded as “relatively stable to normal light”.

These data come from US6521641B1, “Male anti-fertility agents” (Allergan, Inc., priority 1998, dated 2003).
